From publication PMC2784364, “VX-166: a novel potent small molecule caspase inhibitor as a potential therapy for sepsis” (Critical Care, 2009)
Read-outs that look alike come from different tables or passages of the source.

What was measured:
[1] = test system: IL-18 release from peripheral blood mononuclear cells; test: IL-18 release from SAC-treated PBMC; assay type: cell-based; details: overnight
Protocol: (§1) Peripheral blood mononuclear cells (PBMC) from healthy donors were isolated by Ficoll-Paque gradient centrifugation from buffy coats obtained from the National Blood Transfusion Service (Bristol, UK). For IL-1β release, 5 × 10^5 cells/ml were then stimulated with 50 ng/ml lipopolysaccharide (LPS) from Escherichia coli (Sigma-Aldrich Ltd., Poole, UK) in the presence or absence of VX-166 and incubated for 18 hours. Secretion of IL-1β into the supernatant was determined by ELISA (R&D Systems, Abingdon, UK) following the manufacturer's instructions. For IL-18 release, 7.5 × 10^5 cells/ml were stimulated with 6.25 × 10^-4% (w/v) Staphylococcus aureus cell suspension (SAC; Sigma-Aldrich Ltd., Poole, UK) in the presence or absence of VX-166 and incubated overnight. The IL-18 content in the supernatants was quantified by ELISA (Caltag-MedSystems Ltd., Buckingham, UK) following the manufacturer's instructions. In both assays PBMC viability was assessed after the 18 hours incubation time using MTS assay (Promega UK Ltd., Southampton, UK) to ensure that the reduction in cytokine release was not caused by a cytotoxic effect of the compound.

PBMC = PBMC viability (MTS assay); assay type: cell-based, human; details: MTS assay conducted simultaneously with cytokine release assays
Protocol: as §1

[2] = Counterscreening panel (MDS Pharma Services); details: 5 μM, data not shown
Protocol: Active recombinant caspase-1, -3, -4, -7 and -8 were prepared as described previously. Caspase-2 was purchased from Biomol (Exeter, UK), caspase-6 from BD Biosciences (Oxford, UK), caspase-9 from Europa Bioproducts Ltd. (Cambridge, UK) and caspase-10 from Chemicon International Inc. (Harrow, UK). Cathepsin B and granzyme B were purchased from Merck Biosciences Ltd. (Nottingham, UK). Fluorogenic protease substrates were purchased from Bachem Ltd. (St. Helens, UK). All reactions were carried out at 37°C using a Molecular Devices (Wokingham, UK) Gemini plate-reader at 460 nm (excitation wavelength of 390 nm). Caspase inhibition assays were conducted, with minor modifications, as described by Margolin and colleagues. Irreversible kinetics were analysed by calculations of second-order inactivation rate constants (k) using GraphPad (La Jolla, CA, USA) Prism 4.0 software. A larger number for an inactivation rate constant indicates a greater degree of inactivation. To determine the inhibitory effect on cathepsin B, 4.25 nM of the enzyme were added to 250 μM z-RR-AMC in 10 mM 2-morpholino-ethanesulfonic acid pH 6.0, 1 mM DTT, 1 mM EDTA and 0.03% Brij35 in the presence or absence of VX-166 and the reaction monitored continuously over 15 minutes. Granzyme B was assayed, with minor modifications, as described by Thornberry and colleagues. […]

Jurkat cells = test: Staurosporine induced apoptosis in Jurkat cells, Annexin V; assay type: cell-based; details: Human Jurkat cell line/Annexin V, n = 4, read-out: IC50, inhibition of apoptosis
Protocol: Jurkat cells were obtained from LGC Standards (Teddington, UK) and were grown in RPMI 1640, 10% FCS, 2 mM L-glutamine, 100 U/ml penicillin and 0.1 mg/ml streptomycin (all from Sigma Aldrich Ltd., Poole, UK) at 37°C in 5% CO2/95% humidity. Receptor- or stress-mediated apoptosis (2 × 10^5 cells/ml) was induced by addition of either anti-Fas antibody CH-11 (10 ng/ml, Millipore UK Ltd., Watford, UK), TNF-α (20 ng/ml, R&D Systems, Abingdon, UK) with cycloheximide (112 ng/ml, Sigma Aldrich Ltd., Poole, UK) or staurosporine (350 ng/ml, Sigma Aldrich Ltd., Poole, UK). VX-166 was diluted into DMSO (10 mM), further diluted in media and added at a range of concentrations. Cells were then incubated for 18 hours. Apoptotic cells were then labelled with Cy5-conjugated Annexin-V (BD Biosciences, Oxford, UK) and detected using a FMAT™ 8100 Fluorimetric Microassay Technology Reader (Applied Biosystems, Warrington, UK). For the experiments using anti-Fas antibody, apoptosis was additionally measured using a Cell Death Detection ELISA kit (Roche Diagnostics Ltd., Lewes, UK) following the manufacturer's instructions.

In the case of `CCC(C(=O)NC(CC(=O)O)C(=O)COc1c(F)c(F)cc(F)c1F)n1cccc(NC(=O)OC)c1=O` (centres unmarked) [VX-166], the IC50 ([1]; Homo sapiens, PBMC, n = 4, read-out: IC50 ± SD, inhibition of IL-18 release) is reported as < 0.5 µM, the IC50 ([1]; SAC-treated human PBMC, n = 4, read-out: IC50 ± SD, inhibition of IL-18 release) is reported as 0.45 ± 0.17 µM and the “cytotoxic effect in PBMC viability assay” value (PBMC) is reported as “not due to a cytotoxic effect”. For the same compound, the “cross-reactivity in panel of 83 enzymes, ion channels and receptors (28 proteases)” value [2] was “No significant cross-reactivity” and the IC50 (Jurkat cells) was 0.255 ± 0.155 µM.
